# Earlier results as cited in patent publication US6440438B2, “Covering impregnated with insecticide” (Protec Health International Limited, priority 1997, dated 2002).
# Columns and labels:
# [1] = not given; remark: listed apart in the source
# [2] = placed directly in contact with the skin
compound,measurement,setting,value
CC1(C)C(C=C(Cl)Cl)C1C(=O)OCc1cccc(Oc2ccccc2)c1 (stereo not shown) [Permethrin],solubility in water,,does not dissolve in water
same,"period within which skin sensations (numbing, burning, tingling) usually subside","[1]; contact with permethrin, reversible",twelve
same,toxicity to humans,[1]; in vivo,not considered toxic
same,proportion of the chemical absorbed by the skin,[2],about 0.5%
